Test results: patent US20050277586A1, “Peptide chemically modified with polyethylene glycol” (priority 2002, published 2005)

Tested on: A549 cell
Assay: Luciferase-expressing plasmid introduction into A549 cell
Format: cell-based, human
Source text: A cell line established from monkey kidney (Vero cell) and a human bladder cancer cell (T24 cell) purchased from American Type Culture Collection (ATCC) and human lung cancer cell (A549 cell) purchased from Dainippon Pharmaceutical were inoculated on a 24 well culture plate (manufactured by NALGEN NUNC) at 1×10^5 cells/well. Vero cell and A549 cell were cultivated in DMEM (manufactured by Life Technologies Oriental) supplemented with 10% fetal bovine serum (hereinafter referred to as FBS, manufactured by NICHIREI), and T24 cell was cultivated in McCoy's 5a (manufactured by Life Technologies Oriental) supplemented with 10% FBS in 5% CO2 atmosphere at 37° C. for 24 hours. […] The luciferase activity expressed in the cell was then measured by the method instructed in luciferase assay system (manufactured by Promega). […]
20 μL of this cell lysate and 100 μL of the Luciferase Assay Reagent II attached to the kit was added to a fluorescence-measuring plate (Microlite™ 1 plate, manufactured by Dynatech), and after mixing, fluorescence was measured for 1 second by using a multilabel counter (ARVO™ SY1420 MULTILABEL COUNTER, manufactured by Wallac Beltold. […]

Sequence: TRYLRIHPRSWVHQIALRLRYLRIHPRSWVHQIALRS [SEQ ID NO: 1]
- Luciferase activity: 8.7 × 10^4 cps/mg protein
